{"source": "patent US12559789B2", "about": "“Method of targeting patient-specific oncogenes in extrachromosomal DNA to treat glioblastoma” (The Jackson Laboratory, priority 2017, dated 2026)", "type_in_all_cases": "in vivo, mouse", "key": {"[1]": {"experiment": "LC-MS/MS quantitation of capmatinib in plasma and tumor tissue of HF3077 PDX (brain penetrance)", "conditions": "2 h after the last 30 mg/kg oral dose", "protocol": "To evaluate brain penetrance of capmatinib, the inventors drew blood samples two hours after administration of the last capmatinib 30 mg/kg dose, sacrificed the animals, harvested brains, and froze 2 mm coronal sections in OCT. The inventors dissected tumor tissue from the frozen blocks. The inventors determined capmatinib concentration in homogenized tumor tissue and plasma for three treated animals and one control was quantified by LC-MS/MS. For mouse plasma sample analysis, the inventors precipitated 25 μL of each sample with 200 μL of acetonitrile. This suspension was vortexed for 30 min and centrifuged at 4k rpm for 15 min, after which 100 μL of the extract was aliquoted and mixed with 200 μL of acetonitrile/water (1/2, v/v) prior to LC-MS/MS analysis. The extracted plasma samples were analyzed on a Waters Acquity UPLC system coupled with a Waters Xevo TQ-S triple quadrupole mass spectrometer operated at positive mode. The capillary voltage was set to 0.5 kv and collision energy to 32 eV. […] The mobile phase A was 0.1% acetic acid/water and B was 0.1% acetic acid/acetonitrile. The LC gradient was 10% B (0-0.3 min), 10-95% B (0.3-1.3 min), 95% B (1.3-1.7 min), 10% B (1.7-2.0 min) and the flow rate was 0.5 mL/min. The column temperature was 40° C. The injection volume was 2 μL. […] The tissue homogenates were analyzed by using the same method as described above."}, "[2]": {"tested_on": "HF3035 PDX", "experiment": "Survival of HF3035 PDX mice treated with capmatinib (Kaplan-Meier, log-rank)", "conditions": "single agent, 30 mg/kg daily oral doses, log-rank test"}, "[3]": {"tested_on": "HF3077 PDX", "experiment": "Survival of orthotopic HF3077 PDX mice treated with capmatinib (Kaplan-Meier, log-rank)", "conditions": "single agent, 30 mg/kg daily oral doses, log-rank test, significance P<0.05", "excerpt": "Orthotopic xenografts: Following IACUC guidelines in an institutionally approved animal use protocol, the inventors implanted the GBM neurosphere cell suspensions into 8-week old female nude mice (NCRNU, Taconic Farms) (i.e. immunodeficient mice) using the protocol described in Berezovsky, A. D. et al. SOX2 promotes malignancy in glioblastoma by regulating plasticity and astrocytic differentiation, Neoplasia 16, 193-206 e25 (2014), which is incorporated herein by reference. It should be noted that other “nude” or “immunodeficient” mice may be used in the present invention, as would be apparent to those skilled in the art. Thus, the present invention is not limited to the specific nude mice used in this experiment. […] Animals were monitored daily by an observer blinded to the group allocation and sacrificed upon first signs of neurological deficit or weight loss greater than 20%. […]\nThe inventors treated HF3077 PDXs with capmatinib (purchased from Matrix Scientific Products (Columbia, SC)) suspensions in 0.5% methylcellulose/0.1% Tween 80 were prepared every week and administered by oral gavage using a 20 g×1.5″ gavage needle (Cadence) at a dose of 30 mg/kg once a day (5 days/week) until the end of the study. […] Animals were monitored daily and sacrificed upon first signs of neurological deficit or weight loss greater than 20%. […]"}}, "note": "“Also recorded” adds a separate entry of the source."}
{"molecule": "CNC(=O)c1ccc(-c2cnc3ncc(Cc4ccc5ncccc5c4)n3n2)cc1F", "note": "[capmatinib, Capmatinib]", "values": [{"measurement": "concentration of drug in the brain tumor", "setting": "[1]", "value": "relatively low concentration"}, {"measurement": "survival of HF3035 PDX", "setting": "[2]", "value": "did not increase survival"}, {"measurement": "survival of HF3077 PDX", "setting": "[3]", "value": "significant survival benefit; also recorded: increases survival of HF3077 PDX"}]}
